Activity calls are given as the source filed them. No cut-off for these calls is given here. Bridge positions count the residues as written; N and C are the ends. Square brackets hold non-standard residues; d marks the D form. Peptide text beside a SMILES is read from it. I, II: the chains in the order shown. Phe(3,4-Cl2) = N[C@@H](Cc1ccc(Cl)c(Cl)c1)C(=O)O; Phe(4-CF3) = N[C@@H](Cc1ccc(C(F)(F)F)cc1)C(=O)O; Phe(2,4-Cl2) = N[C@@H](Cc1ccc(Cl)cc1Cl)C(=O)O
Columns and labels:
Frizzled-7 [1] = target: T1, Frizzled-7 (Homo sapiens, UniProt O75084); details: CHO
Description: Binding affinity to recombinant human Frizzled-7 (Gln33 to Leu185 residues)/human IgG1 chimeric protein expressed in CHO cells assessed as association rate constant by SPR assay

Frizzled-7 [2] = target: T1, Frizzled-7; type: cell-based; details: cho
Frizzled-7 [3] = target: T1, Frizzled-7; assay: biochemical; type: cell-based, CHO

Structure (SMILES)	Ka (Frizzled-7 [1])	Kd (Frizzled-7 [2])	Kd (Frizzled-7 [3]; cho, read-out: Kd) [nM]	Kd (Frizzled-7 [3]; cho)	Kd (Frizzled-7 [3]; read-out: Kd) [nM]
CSCC[C@H](NC(=O)[C@@H](CC1CCCC1)NC(=O)[C@H](Cc1cnc[nH]1)NC(=O)[C@H](CSSC[C@H](NC(=O)[C@H](Cc1c[nH]c2ccccc12)NC(=O)[C@H](Cc1ccccc1)NC(=O)[C@H](CCC(=O)O)NC(=O)[C@H](CC(C)C)NC(=O)[C@H](CC(=O)O)NC(=O)[C@H](CC(=O)O)NC(=O)[C@H](CO)NC(C)=O)C(=O)N[C@@H](Cc1cnc[nH]1)C(=O)N[C@H](CC1CCCC1)C(=O)N[C@@H](CCSC)C(=O)N[C@@H](Cc1ccc(O)cc1)C(N)=O)NC(=O)[C@H](Cc1c[nH]c2ccccc12)NC(=O)[C@H](Cc1ccccc1)NC(=O)[C@H](CCC(=O)O)NC(=O)[C@H](CC(C)C)NC(=O)[C@H](CC(=O)O)NC(=O)[C@H](CC(=O)O)NC(=O)[C@H](CO)NC(C)=O)C(=O)N[C@@H](Cc1ccc(O)cc1)C(N)=O	30.4 ×10⁵ /M/s	44.1 ×10⁻³ /s	14.5		
CSCC[C@H](NC(=O)[C@@H](CC1CC1)NC(=O)[C@H](Cc1cnc[nH]1)NC(=O)[C@H](CSSC[C@H](NC(=O)[C@H](Cc1c[nH]c2ccccc12)NC(=O)[C@H](Cc1ccccc1)NC(=O)[C@H](CCC(=O)O)NC(=O)[C@H](CC(C)C)NC(=O)[C@H](CC(=O)O)NC(=O)[C@H](CC(=O)O)NC(=O)[C@H](CO)NC(C)=O)C(=O)N[C@@H](Cc1cnc[nH]1)C(=O)N[C@H](CC1CC1)C(=O)N[C@@H](CCSC)C(=O)N[C@@H](Cc1ccc(O)cc1)C(N)=O)NC(=O)[C@H](Cc1c[nH]c2ccccc12)NC(=O)[C@H](Cc1ccccc1)NC(=O)[C@H](CCC(=O)O)NC(=O)[C@H](CC(C)C)NC(=O)[C@H](CC(=O)O)NC(=O)[C@H](CC(=O)O)NC(=O)[C@H](CO)NC(C)=O)C(=O)N[C@@H](Cc1ccc(O)cc1)C(N)=O	80.4 ×10⁵ /M/s	1.26 ×10⁻³ /s	0.16		
CSCC[C@H](NC(=O)[C@@H](CC1CCC1)NC(=O)[C@H](Cc1cnc[nH]1)NC(=O)[C@H](CSSC[C@H](NC(=O)[C@H](Cc1c[nH]c2ccccc12)NC(=O)[C@H](Cc1ccccc1)NC(=O)[C@H](CCC(=O)O)NC(=O)[C@H](CC(C)C)NC(=O)[C@H](CC(=O)O)NC(=O)[C@H](CC(=O)O)NC(=O)[C@H](CO)NC(C)=O)C(=O)N[C@@H](Cc1cnc[nH]1)C(=O)N[C@H](CC1CCC1)C(=O)N[C@@H](CCSC)C(=O)N[C@@H](Cc1ccc(O)cc1)C(N)=O)NC(=O)[C@H](Cc1c[nH]c2ccccc12)NC(=O)[C@H](Cc1ccccc1)NC(=O)[C@H](CCC(=O)O)NC(=O)[C@H](CC(C)C)NC(=O)[C@H](CC(=O)O)NC(=O)[C@H](CC(=O)O)NC(=O)[C@H](CO)NC(C)=O)C(=O)N[C@@H](Cc1ccc(O)cc1)C(N)=O	53 ×10⁵ /M/s	2.13 ×10⁻³ /s	0.4		
CSCC[C@H](NC(=O)[C@@H](CC(C)(C)C)NC(=O)[C@H](Cc1cnc[nH]1)NC(=O)[C@H](CSSC[C@H](NC(=O)[C@H](Cc1c[nH]c2ccccc12)NC(=O)[C@H](Cc1ccccc1)NC(=O)[C@H](CCC(=O)O)NC(=O)[C@H](CC(C)C)NC(=O)[C@H](CC(=O)O)NC(=O)[C@H](CC(=O)O)NC(=O)[C@H](CO)NC(C)=O)C(=O)N[C@@H](Cc1cnc[nH]1)C(=O)N[C@H](CC(C)(C)C)C(=O)N[C@@H](CCSC)C(=O)N[C@@H](Cc1ccc(O)cc1)C(N)=O)NC(=O)[C@H](Cc1c[nH]c2ccccc12)NC(=O)[C@H](Cc1ccccc1)NC(=O)[C@H](CCC(=O)O)NC(=O)[C@H](CC(C)C)NC(=O)[C@H](CC(=O)O)NC(=O)[C@H](CC(=O)O)NC(=O)[C@H](CO)NC(C)=O)C(=O)N[C@@H](Cc1ccc(O)cc1)C(N)=O	68.8 ×10⁵ /M/s	2.16 ×10⁻³ /s	0.32		
CSCC[C@H](NC(=O)[C@@H](NC(=O)[C@H](Cc1cnc[nH]1)NC(=O)[C@H](CO)NC(=O)[C@H](Cc1c[nH]c2ccccc12)NC(=O)[C@H](Cc1ccccc1)NC(=O)[C@H](CCC(=O)O)NC(=O)[C@H](CC(C)C)NC(=O)[C@H](CC(=O)O)NC(=O)[C@H](CC(=O)O)NC(=O)[C@H](CO)NC(=O)[C@@H]1CCCN1C(=O)[C@H](CC(C)C)NC(C)=O)C(C)C)C(=O)N[C@@H](Cc1ccc(O)cc1)C(N)=O (Ac-LPSDDLEFWSHVMY-NH2)	inactive	Not Active		Not Active	
CSCC[C@H](NC(=O)[C@@H](NC(=O)[C@H](Cc1cnc[nH]1)NC(=O)[C@H](CSSC[C@H](NC(=O)[C@H](Cc1c[nH]c2ccccc12)NC(=O)[C@H](Cc1ccccc1)NC(=O)[C@H](CCC(=O)O)NC(=O)[C@H](Cc1ccccc1)NC(=O)[C@H](CC(=O)O)NC(=O)[C@H](CC(=O)O)NC(=O)[C@H](CO)NC(C)=O)C(=O)N[C@@H](Cc1cnc[nH]1)C(=O)N[C@H](C(=O)N[C@@H](CCSC)C(=O)N[C@@H](Cc1ccc(O)cc1)C(N)=O)C(C)C)NC(=O)[C@H](Cc1c[nH]c2ccccc12)NC(=O)[C@H](Cc1ccccc1)NC(=O)[C@H](CCC(=O)O)NC(=O)[C@H](Cc1ccccc1)NC(=O)[C@H](CC(=O)O)NC(=O)[C@H](CC(=O)O)NC(=O)[C@H](CO)NC(C)=O)C(C)C)C(=O)N[C@@H](Cc1ccc(O)cc1)C(N)=O (I: Ac-SDDFEFWCHVMY-NH2 / II: Ac-SDDFEFWCHVMY-NH2; disulfide I:8-II:8)	5.3 ×10⁵ /M/s	62.8 ×10⁻³ /s			122
CC[C@H](C)[C@H](NC(=O)[C@H](Cc1cnc[nH]1)NC(=O)[C@H](CSSC[C@H](NC(=O)[C@H](Cc1c[nH]c2ccccc12)NC(=O)[C@H](Cc1ccccc1)NC(=O)[C@H](CCC(=O)O)NC(=O)[C@H](CC(C)C)NC(=O)[C@H](CC(=O)O)NC(=O)[C@H](CC(=O)O)NC(=O)[C@H](CO)NC(C)=O)C(=O)N[C@@H](Cc1cnc[nH]1)C(=O)N[C@H](C(=O)N[C@@H](CCSC)C(=O)N[C@@H](Cc1ccc(O)cc1)C(N)=O)[C@@H](C)CC)NC(=O)[C@H](Cc1c[nH]c2ccccc12)NC(=O)[C@H](Cc1ccccc1)NC(=O)[C@H](CCC(=O)O)NC(=O)[C@H](CC(C)C)NC(=O)[C@H](CC(=O)O)NC(=O)[C@H](CC(=O)O)NC(=O)[C@H](CO)NC(C)=O)C(=O)N[C@@H](CCSC)C(=O)N[C@@H](Cc1ccc(O)cc1)C(N)=O (I: Ac-SDDLEFWCHIMY-NH2 / II: Ac-SDDLEFWCHIMY-NH2; disulfide I:8-II:8)	55.1 ×10⁵ /M/s	0.96 ×10⁻³ /s			0.18
CSCC[C@H](NC(=O)[C@H](CC(C)C)NC(=O)[C@H](Cc1cnc[nH]1)NC(=O)[C@H](CSSC[C@H](NC(=O)[C@H](Cc1c[nH]c2ccccc12)NC(=O)[C@H](Cc1ccccc1)NC(=O)[C@H](CCC(=O)O)NC(=O)[C@H](CC(C)C)NC(=O)[C@H](CC(=O)O)NC(=O)[C@H](CC(=O)O)NC(=O)[C@H](CO)NC(C)=O)C(=O)N[C@@H](Cc1cnc[nH]1)C(=O)N[C@@H](CC(C)C)C(=O)N[C@@H](CCSC)C(=O)N[C@@H](Cc1ccc(O)cc1)C(N)=O)NC(=O)[C@H](Cc1c[nH]c2ccccc12)NC(=O)[C@H](Cc1ccccc1)NC(=O)[C@H](CCC(=O)O)NC(=O)[C@H](CC(C)C)NC(=O)[C@H](CC(=O)O)NC(=O)[C@H](CC(=O)O)NC(=O)[C@H](CO)NC(C)=O)C(=O)N[C@@H](Cc1ccc(O)cc1)C(N)=O (I: Ac-SDDLEFWCHLMY-NH2 / II: Ac-SDDLEFWCHLMY-NH2; disulfide I:8-II:8)	67.2 ×10⁵ /M/s	1.9 ×10⁻³ /s			0.28
CSCC[C@H](NC(=O)[C@@H](NC(=O)[C@H](Cc1cnc[nH]1)NC(=O)[C@H](CSSC[C@H](NC(=O)[C@H](Cc1c[nH]c2ccccc12)NC(=O)[C@H](Cc1ccccc1)NC(=O)[C@H](CCC(=O)O)NC(=O)[C@H](CC(C)C)NC(=O)[C@H](CC(=O)O)NC(=O)[C@H](CC(=O)O)NC(=O)[C@H](CO)NC(C)=O)C(=O)N[C@@H](Cc1cnc[nH]1)C(=O)N[C@H](C(=O)N[C@@H](CCSC)C(=O)N[C@@H](Cc1ccc(Cl)cc1Cl)C(N)=O)C(C)C)NC(=O)[C@H](Cc1c[nH]c2ccccc12)NC(=O)[C@H](Cc1ccccc1)NC(=O)[C@H](CCC(=O)O)NC(=O)[C@H](CC(C)C)NC(=O)[C@H](CC(=O)O)NC(=O)[C@H](CC(=O)O)NC(=O)[C@H](CO)NC(C)=O)C(C)C)C(=O)N[C@@H](Cc1ccc(Cl)cc1Cl)C(N)=O (I: Ac-SDDLEFWCHVM[Phe(2,4-Cl2)]-NH2 / II: Ac-SDDLEFWCHVM[Phe(2,4-Cl2)]-NH2; disulfide I:8-II:8)	1.29 ×10⁵ /M/s	2.89 ×10⁻³ /s			22.5
CSCC[C@H](NC(=O)[C@@H](NC(=O)[C@H](Cc1cnc[nH]1)NC(=O)[C@H](CSSC[C@H](NC(=O)[C@H](Cc1c[nH]c2ccccc12)NC(=O)[C@H](Cc1ccccc1)NC(=O)[C@H](CCC(=O)O)NC(=O)[C@H](CC(C)C)NC(=O)[C@H](CC(=O)O)NC(=O)[C@H](CC(=O)O)NC(=O)[C@H](CO)NC(C)=O)C(=O)N[C@@H](Cc1cnc[nH]1)C(=O)N[C@H](C(=O)N[C@@H](CCSC)C(=O)N[C@@H](Cc1ccc(Cl)c(Cl)c1)C(N)=O)C(C)C)NC(=O)[C@H](Cc1c[nH]c2ccccc12)NC(=O)[C@H](Cc1ccccc1)NC(=O)[C@H](CCC(=O)O)NC(=O)[C@H](CC(C)C)NC(=O)[C@H](CC(=O)O)NC(=O)[C@H](CC(=O)O)NC(=O)[C@H](CO)NC(C)=O)C(C)C)C(=O)N[C@@H](Cc1ccc(Cl)c(Cl)c1)C(N)=O (I: Ac-SDDLEFWCHVM[Phe(3,4-Cl2)]-NH2 / II: Ac-SDDLEFWCHVM[Phe(3,4-Cl2)]-NH2; disulfide I:8-II:8)	1.4 ×10⁵ /M/s	0.9 ×10⁻³ /s			6.4
CSCC[C@H](NC(=O)[C@@H](NC(=O)[C@H](Cc1cnc[nH]1)NC(=O)[C@H](CSSC[C@H](NC(=O)[C@H](Cc1c[nH]c2ccccc12)NC(=O)[C@H](Cc1ccccc1)NC(=O)[C@H](CCC(=O)O)NC(=O)[C@H](CC(C)C)NC(=O)[C@H](CC(=O)O)NC(=O)[C@H](CC(=O)O)NC(=O)[C@H](CO)NC(C)=O)C(=O)N[C@@H](Cc1cnc[nH]1)C(=O)N[C@H](C(=O)N[C@@H](CCSC)C(=O)N[C@@H](Cc1ccc(C(F)(F)F)cc1)C(N)=O)C(C)C)NC(=O)[C@H](Cc1c[nH]c2ccccc12)NC(=O)[C@H](Cc1ccccc1)NC(=O)[C@H](CCC(=O)O)NC(=O)[C@H](CC(C)C)NC(=O)[C@H](CC(=O)O)NC(=O)[C@H](CC(=O)O)NC(=O)[C@H](CO)NC(C)=O)C(C)C)C(=O)N[C@@H](Cc1ccc(C(F)(F)F)cc1)C(N)=O (I: Ac-SDDLEFWCHVM[Phe(4-CF3)]-NH2 / II: Ac-SDDLEFWCHVM[Phe(4-CF3)]-NH2; disulfide I:8-II:8)	1.45 ×10⁵ /M/s	1.9 ×10⁻³ /s			13.1
